In the supplement of paper PMC12513837:
± gives the standard deviation of the averaged measurements.

Compound: CC(=O)N1CCc2c(c(N3CCCc4cc(-c5cnn(C)c5)c(C(F)F)cc43)nn2C2CCC(CN3CCN(c4ccc5c(c4)C(=O)N(C4CCC(=O)NC4=O)C5=O)CC3)CC2)C1 [CBPD-409]
Test: AUC of viability dose-response curve (relative to vehicle, 8 doses up to 10 µM) (fraction); higher = less sensitive (more viable); extreme values may be limits of the assay
Method: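 PRISM multiplexed pooled barcoded cell line viability screen at the Broad Institute, 887 cancer cell lines treated with CBPD-409 (p300/CBP PROTAC degrader) at 8 concentrations in threefold dilution, top dose 10 µM. The read-out is the area under the dose-response curve of relative viability versus vehicle (n=3). AUC < 0.3 is called strongly sensitive and AUC > 0.8 resistant.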

| Test System | AUC of viability dose-response curve |
| --- | --- |
| IGR37_SKIN | 0.229 |
| NCIH596_LUNG | 1 |
| SNU489_CENTRAL_NERVOUS_SYSTEM | 1 |
| SUM149PT_BREAST | 0.789 |
| NCIH441_LUNG | 0.558 |
| NCIH661_LUNG | 0.567 |
| GIMEN_AUTONOMIC_GANGLIA | 0.616 |
| SKES1_BONE | 0.286 ± 0.11 |
| KATOIII_STOMACH | 0.581 |
| GDM1_HAEMATOPOIETIC_AND_LYMPHOID_TISSUE | 0.877 |
| SNU840_OVARY | 1 |
| RI1_HAEMATOPOIETIC_AND_LYMPHOID_TISSUE | 0.424 |
| TTC442_SOFT_TISSUE | 0.911 |
| KON_UPPER_AERODIGESTIVE_TRACT | 0.7 |
| PECAPJ41CLONED2_UPPER_AERODIGESTIVE_TRACT | 0.662 |
| WM88_SKIN | 0.893 |
| 93T449_SOFT_TISSUE | 1 |
| JEKO1_HAEMATOPOIETIC_AND_LYMPHOID_TISSUE | 1 |
| C75_LARGE_INTESTINE | 1 |
| CALU1_LUNG | 0.901 |
| NCIH1341_LUNG | 1 |
| SKMEL5_SKIN | 0.506 |
| HCC1438_LUNG | 0.893 |

| Test System | AUC of viability dose-response curve |
| --- | --- |
| U937_HAEMATOPOIETIC_AND_LYMPHOID_TISSUE | 1 |
| RERFLCAI_LUNG | 0.913 |
| PFSK1_CENTRAL_NERVOUS_SYSTEM | 0.531 |
| SKUT1_SOFT_TISSUE | 0.609 |
| NCIH1648_LUNG | 0.448 |
| NALM6_HAEMATOPOIETIC_AND_LYMPHOID_TISSUE | 0.331 |
| RH4_SOFT_TISSUE | 0.308 |
| TC106_BONE | 1 |
| DV90_LUNG | 0.588 |
| SNU685_ENDOMETRIUM | 1 |
| JEG3_PLACENTA | 0.307 |
| TE1_OESOPHAGUS | 0.884 |
| RKN_SOFT_TISSUE | 1 |
| SKGT2_STOMACH | 0.887 |
| JM1_HAEMATOPOIETIC_AND_LYMPHOID_TISSUE | 0.4 |
| SNU46_UPPER_AERODIGESTIVE_TRACT | 0.547 |
| JR_SOFT_TISSUE | 0.34 |
| SKNMC_BONE | 0.996 |
| TTC709_SOFT_TISSUE | 0.23 |
| KYSE510_OESOPHAGUS | 0.928 |
| LK2_LUNG | 0.178 |
| PF382_HAEMATOPOIETIC_AND_LYMPHOID_TISSUE | 0.566 |
| HCC827_LUNG | 0.731 |

| Test System | AUC of viability dose-response curve |
| --- | --- |
| HS939T_SKIN | 0.815 |
| SCLC21H_LUNG | 1 |
| H4_CENTRAL_NERVOUS_SYSTEM | 0.625 |
| A549_LUNG | 1 |
| HT1376_URINARY_TRACT | 1 |
| THP1_HAEMATOPOIETIC_AND_LYMPHOID_TISSUE | 1 |
| SUSA_TESTIS | 0.578 |
| SNU1105_CENTRAL_NERVOUS_SYSTEM | 0.577 |
| TANOUE_HAEMATOPOIETIC_AND_LYMPHOID_TISSUE | 1 |
| SW620_LARGE_INTESTINE | 0.559 |
| KMS27_HAEMATOPOIETIC_AND_LYMPHOID_TISSUE | 0.801 |
| MSTO211H_PLEURA | 0.672 |
| A704_KIDNEY | 0.942 |
| HUH1_LIVER | 0.882 |
| GB2_BILIARY_TRACT | 0.826 |
| MKN45_STOMACH | 0.238 |
| CH157MN_CENTRAL_NERVOUS_SYSTEM | 0.899 |
| MDAMB468_BREAST | 0.97 |
| KMS18_HAEMATOPOIETIC_AND_LYMPHOID_TISSUE | 0.466 |
| SKHEP1_LIVER | 1 |
| 42MGBA_CENTRAL_NERVOUS_SYSTEM | 0.485 |
| SMSCTR_SOFT_TISSUE | 0.847 |
| UPCISCC111_UPPER_AERODIGESTIVE_TRACT | 1 |

| Test System | AUC of viability dose-response curve |
| --- | --- |
| SNU638_STOMACH | 0.48 |
| LCLC103H_LUNG | 1 |
| SKGI_ENDOMETRIUM | 1 |
| CHLA200_CENTRAL_NERVOUS_SYSTEM | 0.168 |
| UMUC10_URINARY_TRACT | 0.511 |
| CAL51_BREAST | 0.595 |
| NCIH1563_LUNG | 0.445 |
| NCIH1437_LUNG | 0.895 |
| JHH1_LIVER | 0.282 |
| KYSE180_OESOPHAGUS | 0.929 |
| K562_HAEMATOPOIETIC_AND_LYMPHOID_TISSUE | 1 |
| MONOMAC1_HAEMATOPOIETIC_AND_LYMPHOID_TISSUE | 1 |
| RCC10RGB_KIDNEY | 1 |
| UMRC3_KIDNEY | 0.929 |
| GCT27_TESTIS | 0.696 |
| HSC2_UPPER_AERODIGESTIVE_TRACT | 0.502 |
| NCIH2228_LUNG | 0.91 |
| RO82W1_THYROID | 1 |
| NCIH841_LUNG | 0.855 |
| SNU1079_BILIARY_TRACT | 0.648 |
| NCIH358_LUNG | 1 |
| CJM_SKIN | 0.415 |
| SUPT11_HAEMATOPOIETIC_AND_LYMPHOID_TISSUE | 1 |

| Test System | AUC of viability dose-response curve |
| --- | --- |
| UMUC5_URINARY_TRACT | 0.749 |
| HUH7_LIVER | 0.796 |
| KU1919_URINARY_TRACT | 0.267 |
| EGI1_BILIARY_TRACT | 0.872 |
| 22RV1_PROSTATE | 0.189 |
| 1777NRPMET_TESTIS | 0.655 |
| 786O_KIDNEY | 0.84 |
| KALS1_CENTRAL_NERVOUS_SYSTEM | 1 |
| ICC10_BILIARY_TRACT | 0.827 |
| EM2_HAEMATOPOIETIC_AND_LYMPHOID_TISSUE | 0.613 |
| TE9_OESOPHAGUS | 1 |
| CAL62_THYROID | 0.321 |
| ISTMES2_PLEURA | 0.579 |
| WM793_SKIN | 0.949 |
| HMC18_BREAST | 0.932 |
| G402_SOFT_TISSUE | 0.514 ± 0.18 |
| UMRC7_KIDNEY | 0.773 |
| HA1E_KIDNEY | 0.542 |
| MG63_BONE | 1 |
